From patent US4032625A, “Bone-seeking technetium-99m complex” (priority 1975, dated 1977)

Experiment: Distribution of 99mTc-EHDP and 85Sr in rabbits, simultaneous study (Example 2, Table 1)
Format: in vivo, New Zealand albino rabbits
Description: Adult New Zealand albino rabbits having an average weight of 3.8 kg were utilized. Strontium-85 was employed as a standard for comparison. […] Each dosage is contained in a volume of 1 ml.
The animals were sacrificed serially from 1 to 24 hours after injection and the activities in major organs were determined by counting multiple samples from each organ in a scintillation well counter (the technetium-99m counts were corrected for the Compton contributions from the strontium-85 activity in the technetium-99m energy window). Multiple samples were counted from the tibia, femur, spine and pelvic bones; the total activity in the skeleton was estimated by assuming the whole skeleton consisted of equal proportions by weight of tibia, spine, femur and pelvis and that the skeletal mass was 10% of the body weight. The red marrow was sampled from the femur and the total marrow was assumed to be 2.2% of the total body weight. Similarly, blood volume was assumed to be 7% and the skeletal muscle 43% of the body weight. The whole liver and both kidneys were weighed and multiple samples from each were counted to measure the total activity in each organ.
In another series of experiments carried out as described above, localization of technetium from its tin-phosphonate complex was determined in the callous of three week-old fractures of tibia in albino rabbits, again in comparison with strontium-85. Comparative radioassay of technetium-99m administered as the pertechnetate was measured in the callous of tibial fractures in rabbits at one and four hours after administration.

Compound: [85Sr] [^85 Sr]
- % Dose in Whole Organ: Kidneys (1 Hr): 0.80 % dose
- % Dose in Whole Organ: Liver (1 Hr): 1.57 % dose
- % Dose in Whole Organ: One Femur (1 Hr): 1.04 % dose
- % Dose: Urine (1 Hr): 6.96 % dose
- % dose in whole organ: Blood (7% of body weight) (1 Hr): 11.9 % dose
- % dose in whole organ: Bone(Avg) (10% of body weight) (1 Hr): 56.0 % dose
- % dose in whole organ: Marrow (2.2% of body weight) (1 Hr): 0.91 % dose
- % dose in whole organ: Muscle (43% of body weight) (1 Hr): 13.4 % dose
- Bone/Muscle ratio (1 Hr): 19
- Ratio Bone/Blood (1 Hr): 3.4
- Ratio Bone/Marrow (1 Hr): 14
- Ratio Callus/N. Femur (1 Hr): 7
- Ratio Callus/N. Tibia (1 Hr): 9
- Ratio Plus/Blood (1 Hr): 18
- % Dose in Whole Organ: Kidneys (2 Hrs): 0.64 % dose
- % Dose in Whole Organ: Liver (2 Hrs): 0.98 % dose
- % Dose in Whole Organ: One Femur (2 Hrs): 1.21 % dose
- % Dose: Urine (2 Hrs): 18.0 % dose
- % dose in whole organ: Blood (7% of body weight) (2 Hrs): 7.08 % dose
- % dose in whole organ: Bone(Avg) (10% of body weight) (2 Hrs): 49.4 % dose
- % dose in whole organ: Marrow (2.2% of body weight) (2 Hrs): 0.76 % dose
- % dose in whole organ: Muscle (43% of body weight) (2 Hrs): 8.8 % dose
- Bone/Muscle ratio (2 Hrs): 32
- Ratio Bone/Blood (2 Hrs): 6.4
- Ratio Bone/Marrow (2 Hrs): 19
- % Dose in Whole Organ: Kidneys (4 Hrs): 0.34 % dose
- % Dose in Whole Organ: Liver (4 Hrs): 0.62 % dose
- % Dose in Whole Organ: One Femur (4 Hrs): 1.25 % dose
- % Dose: Urine (4 Hrs): 22.7 % dose
- % dose in whole organ: Blood (7% of body weight) (4 Hrs): 3.85 % dose
- % dose in whole organ: Bone(Avg) (10% of body weight) (4 Hrs): 68.1 % dose
- % dose in whole organ: Marrow (2.2% of body weight) (4 Hrs): 0.50 % dose
- % dose in whole organ: Muscle (43% of body weight) (4 Hrs): 6.46 % dose
- Bone/Muscle ratio (4 Hrs): 47
- Ratio Bone/Blood (4 Hrs): 13
- Ratio Bone/Marrow (4 Hrs): 32
- Ratio Callus/N. Femur (4 Hrs): 7
- Ratio Callus/N. Tibia (4 Hrs): 8
- Ratio Plus/Blood (4 Hrs): 81
- % Dose in Whole Organ: Kidneys (24 Hrs): 0.03 % dose
- % Dose in Whole Organ: Liver (24 Hrs): 0.04 % dose
- % Dose in Whole Organ: One Femur (24 Hrs): 0.93 % dose
- % dose in whole organ: Blood (7% of body weight) (24 Hrs): 0.29 % dose
- % dose in whole organ: Bone(Avg) (10% of body weight) (24 Hrs): 51.9 % dose
- % dose in whole organ: Marrow (2.2% of body weight) (24 Hrs): 0.10 % dose
- % dose in whole organ: Muscle (43% of body weight) (24 Hrs): 1.00 % dose
- Bone/Muscle ratio (24 Hrs): 227
- Ratio Bone/Blood (24 Hrs): 134
- Ratio Bone/Marrow (24 Hrs): 119
